“And” between values parts separate entries of the source, which are not always exact repeats. Equal values may be shown once.

Chain of human ICMT (O60725 whole entry): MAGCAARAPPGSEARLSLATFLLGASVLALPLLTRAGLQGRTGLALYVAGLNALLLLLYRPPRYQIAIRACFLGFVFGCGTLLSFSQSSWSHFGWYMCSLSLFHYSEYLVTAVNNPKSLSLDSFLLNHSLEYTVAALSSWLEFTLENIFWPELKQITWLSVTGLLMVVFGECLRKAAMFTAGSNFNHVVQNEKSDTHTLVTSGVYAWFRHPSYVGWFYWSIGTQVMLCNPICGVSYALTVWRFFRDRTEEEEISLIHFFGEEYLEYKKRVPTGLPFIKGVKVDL

One test addresses human ICMT (Homo sapiens (Human), UniProt O60725). Briefly: ICMT biochemical assay (Methyltransferase-Glo). As to conditions: ICMT membrane extract from Sf-9 cells; 30 min preincubation, 90 min reaction. The procedure:
Recombinant human ICMT was prepared by infection of Sf9 cells with a recombinant baculovirus containing the entire open reading frame of the human ICMT cDNA.
Cells producing ICMT were harvested 66 hours post-infection. The cells are homogenized and resuspended in 5 mM NaHPO4 (pH 7.0), and a cocktail of protease inhibitors. The membrane was pelleted, after removal of nuclei and debris, at 100,000×g for 1 hour. Membranes were resuspended in 5 mM NaHPO4 (pH 7.0) with 5 mM EDTA at 10-12 mg/ml. The suspension was stored at −80° C. in multiple aliquots.
An ICMT enzymatic assay was developed using Promega's Methyltransferase-GloTMreagents. In the assay, ICMT catalyzes the methylation of the N-Acetyl-S-farnesyl-L-cysteine by transferring a methyl group from SAM to the farnesylated cysteine and further converts the SAM to SAH. The methyltransferase activity is measured based on the amount of SAH produced from the reaction through the use of coupling enzymes that convert the SAH to ATP. The MTase-Glo detection solution then catalyzes the formation of light from ATP.
A final concentration of 2.0 μM and 20 μM of SAM and peptide were added and further incubated for 90 minutes at room temperature before adding the MTase Glo and detection reagent. Reaction signals were detected using microplate readers on luminescent mode (Satire Tecan). The IC50 was determined by nonlinear regression, using GraphPad Prism version, 5.03.
A word on the IC50: it is the concentration needed to halve the response being measured. Higher therefore signals a need for much substance. Turning to `Cc1cc(C#N)ccc1O[C@@H](C)COc1cccc(-c2ccnn2C)c1` [Compound 40, (S)-3-methyl-4-((1-(3-(1-methyl-1H-pyrazol-5-yl)phenoxy)propan-2-yl)oxy)benzonitrile], the IC50 came to 9.5 nM.

As for `N#Cc1ccc(OCCOc2cccc(-c3cncs3)c2)cc1` [Compound 3, 4-(2-(3-(thiazol-5-yl)phenoxy)ethoxy)benzonitrile], the IC50 was 630 nM and 490 nM.

Molecule `N#Cc1ccc(OCCOc2cccc(-c3ccnn3C3CC3)c2)cc1` [Compound 117, 4-(2-(3-(1-cyclopropyl-1H-pyrazol-5-yl)phenoxy)ethoxy)benzonitrile] registered a concentration for half-maximal inhibition (IC50) of 55 nM.

For the molecule `Cc1nccn1-c1cccc(OCCOc2ccc(C#N)cc2C(F)(F)F)c1` [Compound 111, 4-(2-(3-(2-methyl-1H-imidazol-1-yl)phenoxy)ethoxy)-3-(trifluoromethyl)benzonitrile], the 50% inhibitory concentration (IC50) amounted to 180 nM.

For the molecule `Cc1cc(C#N)ccc1O[C@H](C)COc1cccc(-c2ccnn2C)c1` [Compound 39, (R)-3-methyl-4-((1-(3-(1-methyl-1H-pyrazol-5-yl)phenoxy)propan-2-yl)oxy)benzonitrile], the IC50 worked out at 4.7 nM.

`Cn1nccc1-c1cccc(OCCOc2ccc(F)cc2C#N)c1` [Compound 54, 5-fluoro-2-(2-(3-(1-methyl-1H-pyrazol-5-yl)phenoxy)ethoxy)benzonitrile] had an IC50 of 32 nM.

Turning to `C[C@H](COc1cccc(-c2ccno2)c1)Oc1ccc(C#N)cc1F` [Compound 65, (R)-3-fluoro-4-((1-(3-(isoxazol-5-yl)phenoxy)propan-2-yl)oxy)benzonitrile], the IC50 was 4670 nM and 4390 nM.

Molecule `N#Cc1ccc(OCCOc2cccc(-c3ccnn3C3CC3)c2)c(Cl)c1` [Compound 118, 3-chloro-4-(2-(3-(1-cyclopropyl-1H-pyrazol-5-yl)phenoxy)ethoxy)benzonitrile] gave a 50% inhibitory concentration (IC50) of 2.2 nM.

Turning to `Cn1nccc1-c1cccc(OCCOc2ccc(C#N)cn2)c1` [Compound 75, 6-(2-(3-(1-methyl-1H-pyrazol-5-yl)phenoxy)ethoxy)nicotinonitrile], the concentration for half-maximal inhibition (IC50) was 60 nM and 62 nM.

`Cc1nccn1-c1cccc(OCCOc2ccc(C#N)cc2OC(F)(F)F)c1` [Compound 36, 4-(2-(3-(2-methyl-1H-imidazol-1-yl)phenoxy)ethoxy)-3-(trifluoromethoxy)benzonitrile] returned a half-maximal inhibitory concentration (IC50) of 140 nM.

As to `Cn1nccc1-c1cccc(OCCOc2ccc(C#N)cc2F)n1` [Compound 106, 3-fluoro-4-(2-((6-(1-methyl-1H-pyrazol-5-yl)pyridin-2-yl)oxy)ethoxy)benzonitrile], the IC50 was 300 to 1000 nM.

For the molecule `Cc1nccn1-c1cccc(O[C@H](C)COc2ccc(C#N)cc2F)c1` [Compound 34, (R)-3-fluoro-4-(2-(3-(2-methyl-1H-imidazol-1-yl)phenoxy)propoxy)benzonitrile], the concentration for half-maximal inhibition (IC50) was 1470 nM.

In turn, `Cn1nccc1-c1cc(OCCOc2ccc(C#N)cc2F)ccc1F` [Compound 113, 3-fluoro-4-(2-(4-fluoro-3-(1-methyl-1H-pyrazol-5-yl)phenoxy)ethoxy)benzonitrile] showed an IC50 of 22 nM.

Take `Cc1nccn1-c1cc(OCCOc2ncc(C#N)cc2F)ccn1` [Compound 91, 5-fluoro-6-(2-((2-(2-methyl-1H-imidazol-1-yl)pyridin-4-yl)oxy)ethoxy)nicotinonitrile]: the IC50 stood at 120 nM.

The molecule `Cc1nccn1-c1cccc(OCCOc2ccc(C#N)cn2)c1` [Compound 10, 6-(2-(3-(2-methyl-1H-imidazol-1-yl)phenoxy)ethoxy)nicotinonitrile] had an IC50 of 80 nM.

For the molecule `Cc1nccn1-c1cccc(OCCOc2ccc(F)cc2C#N)c1` [Compound 114, 5-fluoro-2-(2-(3-(2-methyl-1H-imidazol-1-yl)phenoxy)ethoxy)benzonitrile], the 50% inhibitory concentration (IC50) came out at 82 nM.

For the molecule `Cc1nccn1-c1cc(OCCOc2ncc(C#N)cc2F)ccc1F` [Compound 87, 5-fluoro-6-(2-(4-fluoro-3-(2-methyl-1H-imidazol-1-yl)phenoxy)ethoxy)nicotinonitrile], the 50% inhibitory concentration (IC50) was determined as 33 nM.

Consider `COc1cc(C#N)ccc1OCCOc1cccc(-n2ccnc2C)c1` [Compound 8, 3-methoxy-4-(2-(3-(2-methyl-1H-imidazol-1-yl)phenoxy)ethoxy)benzonitrile], for which the IC50 was 0.2 nM and 0.36 nM.

`Cn1nccc1-c1cc(OCCOc2ncc(C#N)cc2F)ccn1` [Compound 97, 5-fluoro-6-(2-((2-(1-methyl-1H-pyrazol-5-yl)pyridin-4-yl)oxy)ethoxy)nicotinonitrile] returned an IC50 of 470 to 1000 nM.

The molecule `Cc1nccn1-c1cccc(OCC(C)Oc2ccc(C#N)cc2Cl)c1` (stereo not drawn) [Compound 44, 3-chloro-4-((1-(3-(2-methyl-1H-imidazol-1-yl)phenoxy)propan-2-yl)oxy)benzonitrile] displayed an IC50 of 780 nM.

`COc1cc(C#N)ccc1O[C@@H](C)COc1cccc(-n2ccnc2C)c1` [Compound 72, (S)-3-methoxy-4-((1-(3-(2-methyl-1H-imidazol-1-yl)phenoxy)propan-2-yl)oxy)benzonitrile]: the half-inhibitory concentration (IC50) was found to be 4.5 nM.

Consider `Cc1nccn1-c1cc(OCCOc2ccc(C#N)cc2)ccc1F` [Compound 108, 4-(2-(4-fluoro-3-(2-methyl-1H-imidazol-1-yl)phenoxy)ethoxy)benzonitrile], for which the IC50 came to 51 nM.

The molecule `N#Cc1ccc(OCCOc2ccnc(-n3cnnn3)c2)c(F)c1` [Compound 120, 4-(2-((2-(1H-tetrazol-1-yl)pyridin-4-yl)oxy)ethoxy)-3-fluorobenzonitrile] gave an IC50 of 12 nM.

With `CC(COc1cccc(-c2ccno2)c1)Oc1ccc(C#N)cc1F` (stereo not drawn) [Compound 64, 3-fluoro-4-((1-(3-(isoxazol-5-yl)phenoxy)propan-2-yl)oxy)benzonitrile], the IC50 was 270 nM and 470 nM.

For the molecule `N#Cc1ccc(OCCOc2cccc(-n3ccnc3C3CC3)c2)cc1` [Compound 62, 4-(2-(3-(2-cyclopropyl-1H-imidazol-1-yl)phenoxy)ethoxy)benzonitrile], the IC50 came to 8.5 nM.

Consider `N#Cc1ccc(OCCOc2cccc(-n3ccnc3C3CC3)c2)c(F)c1` [Compound 17, 4-(2-(3-(2-cyclopropyl-1H-imidazol-1-yl)phenoxy)ethoxy)-3-fluorobenzonitrile], for which half-maximal inhibition (IC50) was put at 16 nM.

Take `Cc1cc(C#N)ccc1O[C@H](C)COc1cccc(-n2ccnc2C2CC2)c1` [Compound 68, (R)-4-((1-(3-(2-cyclopropyl-1H-imidazol-1-yl)phenoxy)propan-2-yl)oxy)-3-methylbenzonitrile]: the IC50 is 1.5 nM and 13 nM.

Take `Cn1nccc1-c1cccc(OCCOc2ncc(C#N)cc2F)c1` [Compound 82, 5-fluoro-6-(2-(3-(1-methyl-1H-pyrazol-5-yl)phenoxy)ethoxy)nicotinonitrile]: the IC50 was 210 nM and 190 nM.

`N#Cc1ccc(OCCOc2cccc(-n3cnnc3)c2)c(F)c1` [Compound 38, 4-(2-(3-(4H-1,2,4-triazol-4-yl)phenoxy)ethoxy)-3-fluorobenzonitrile] returned a half-maximal inhibitory concentration (IC50) of 310 nM.

On to `Cc1cc(C#N)ccc1OC(C)COc1cccc(-c2ccnn2C)c1` (stereo not drawn) [Compound 30, 3-methyl-4-((1-(3-(1-methyl-1H-pyrazol-5-yl)phenoxy)propan-2-yl)oxy)benzonitrile], for which half-maximal inhibition (IC50) was put at 1.6 nM.

`Cc1nccn1-c1cccc(OCCOc2ccc(C#N)cc2F)c1` [Compound 6, 3-fluoro-4-(2-(3-(2-methyl-1H-imidazol-1-yl)phenoxy)ethoxy)benzonitrile]: the concentration for half-maximal inhibition (IC50) was 2 nM and 1 nM and 2.4 nM.

With `N#Cc1ccc(OCCOc2cccc(-n3cncn3)c2)cc1` [Compound 1, 4-(2-(3-(1H-1,2,4-triazol-1-yl)phenoxy)ethoxy)benzonitrile], the midpoint of inhibition, the IC50, lay at 560 nM.

`N#Cc1cnc(OCCOc2ccnc(-n3ccnc3C3CC3)c2)c(F)c1` [Compound 90, 6-(2-((2-(2-cyclopropyl-1H-imidazol-1-yl)pyridin-4-yl)oxy)ethoxy)-5-fluoronicotinonitrile] had an IC50 of 37 nM.

`Cn1nccc1-c1cccc(OCCOc2ccc(C#N)cc2F)c1` [Compound 14, 3-fluoro-4-(2-(3-(1-methyl-1H-pyrazol-5-yl)phenoxy)ethoxy)benzonitrile] displayed a half-maximal inhibitory concentration (IC50) of 15 nM.

The molecule `Cn1nccc1-c1cc(OCCOc2ccc(C#N)cc2)ccc1F` [Compound 93, 4-(2-(4-fluoro-3-(1-methyl-1H-pyrazol-5-yl)phenoxy)ethoxy)benzonitrile] gave an IC50 of 6.6 nM.

As to `Cc1ccc(OCCOc2cccc(-c3ccnn3C)c2)c(C#N)c1` [Compound 18, 5-methyl-2-(2-(3-(1-methyl-1H-pyrazol-5-yl)phenoxy)ethoxy)benzonitrile], the IC50 came to 3 nM.

Turning to `N#Cc1ccc(OCCOc2cccc(-c3cncs3)c2)c(Cl)c1` [Compound 11, 3-chloro-4-(2-(3-(thiazol-5-yl)phenoxy)ethoxy)benzonitrile], the IC50 was determined as 20 nM.

`Cn1nccc1-c1cncc(OCCOc2ccc(C#N)cc2F)c1` [Compound 92, 3-fluoro-4-(2-((5-(1-methyl-1H-pyrazol-5-yl)pyridin-3-yl)oxy)ethoxy)benzonitrile] came in with a half-inhibitory concentration (IC50) of 300 to 1000 nM.

The test is the same for the next values; noted with them: unit (nM).
On to `Cc1cc(C#N)ccc1OC(C)COc1cccc(-n2ccnc2C2CC2)c1` (stereo not drawn) [Compound 61, 4-((1-(3-(2-cyclopropyl-1H-imidazol-1-yl)phenoxy)propan-2-yl)oxy)-3-methylbenzonitrile], for which the IC50 is 0.88 nM.

(Values after patent US11834430B2, “Compounds useful as inhibitors of isoprenylcysteine carboxyl methyltransferase” (AGENCY FOR SCIENCE, TECHNOLOGY AND RESEARCH, priority 2017, dated 2023).)
